Where a chain is given by its changes, count along the chain named.
Assays:
TP A160S mutant = biological target: T1, TP A160S mutant (Homo sapiens, UniProt P21731, A160S); test: Heterologous competition binding, unlabeled U46619 against 4 nM [3H] SQ 29,548; settings: read-out: Ki of agonist U46619, 4 nM [3H] SQ 29,548, 2 hr room temperature, Cheng-Prusoff from IC50
T1 construct: expressed in transfected cells; HEK293T (calcium assays)
T1 sequence (P21731 1-343 A160S): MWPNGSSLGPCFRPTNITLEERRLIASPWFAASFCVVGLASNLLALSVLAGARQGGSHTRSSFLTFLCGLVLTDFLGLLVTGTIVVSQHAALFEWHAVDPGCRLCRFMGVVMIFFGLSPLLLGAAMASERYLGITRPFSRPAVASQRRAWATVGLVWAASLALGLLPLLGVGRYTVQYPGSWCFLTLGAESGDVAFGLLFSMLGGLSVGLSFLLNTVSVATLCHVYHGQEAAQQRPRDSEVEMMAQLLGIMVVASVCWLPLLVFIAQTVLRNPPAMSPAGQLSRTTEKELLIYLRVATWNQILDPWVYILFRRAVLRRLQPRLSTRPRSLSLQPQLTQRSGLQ
Protocol: (§1) Amino acid substitutions were introduced into the synthetic TPα gene carried by the expression vector pMT4 as described previously, [29]. DNA sequences of all the mutated genes were verified by automated DNA sequencing. To minimize variations in transfection efficiency, the total amount transfected DNA was kept constant in all cases at 1 µg of DNA per 7×10^5 cells. The wild type TP or mutant genes were expressed in COS-1 cells using a DEAE-dextran based transient transfection method, [29], and in HEK293T cells using lipofectamine 2000 (Invitrogen). Except unless specified, the membranes prepared from COS-1 cells were used for radioligand binding assays and immunoblots. For intracellular calcium determination assays and immunofluorescence imaging, HEK293T cells were used. For transient transfections of HEK293T cells using the plasmid pMT4, lipofectamine 2000 (Invitrogen) mediated transfection was used as described by the manufacturer. Membranes were prepared using Buffers A and B and as described previously, [29]. The protein concentration in the resuspended membrane pellet was determined using a modified DC protein assay kit from Bio-Rad Laboratories (Hercules, CA).
(§2) These were carried out in Buffer C for 60 min at room temperature, using 2 to 20 µg of membrane protein and different concentrations of [^3H] […] Binding of [^3H] […] Competition binding assays were performed using 4 nM [^3H] […] Binding was terminated by filtering under vacuum on GF/A filters (Millipore). Filter-bound radioactivity was measured using a liquid scintillation counter. Equilibrium dissociation constants (Kd) were determined from saturation isotherms using PRISM software version 5.0 (GraphPad Software Inc, San Diego, CA, USA). The Ki values were calculated from the IC50, using the equation of Cheng and Prusoff by PRISM software version 5.0. Where applicable, statistical significance of the data was evaluated using analysis of variance (ANOVA) and/or unpaired t test.

[1] = biological target: T2, TP A160T mutant (nsSNP variant) (Homo sapiens, UniProt P21731, A160T); test: as above; settings: read-out: Ki of agonist U46619, 4 nM [3H] SQ 29,548, 2 hr room temperature, Cheng-Prusoff from IC50
T2 construct: expressed in transfected cells; HEK293T (calcium assays)
T2 sequence (P21731 1-343 A160T): T1 sequence (P21731 1-343 A160S) with S160T
Protocol: as §1, §2

TP A160V mutant = biological target: T3, TP A160V mutant (Homo sapiens, UniProt P21731, A160V); test: as above; settings: read-out: Ki of agonist U46619, 4 nM [3H] SQ 29,548, 2 hr room temperature, Cheng-Prusoff from IC50
T3 construct: expressed in transfected cells; HEK293T (calcium assays)
T3 sequence (P21731 1-343 A160V): T1 sequence (P21731 1-343 A160S) with S160V
Protocol: as §1, §2

[2] = biological target: T2, TP A160T mutant (nsSNP variant); test: Reversal of basal (agonist-independent) calcium mobilization in transfected HEK293T cells; format: cell-based; settings: HEK293T cells pre-treated with 1 µM unlabelled SQ 29,548, p<0.05
Protocol: Changes in intracellular calcium were measured by using the fluorescent calcium sensitive dye Fluo-4NW (Invitrogen). After 6–8 hours of transient transfection of HEK293T cells using lipofectamine 2000, 100,000 viable cells were plated into each well of a 96-well tissue culture treated BD-falcon optilux plates. Cells mock transfected with vector pMT4 alone were used as a negative control. Following 24 hours of incubation at 37°C, the media was removed and cells were incubated with the dye Fluo-4NW (Invitrogen) containing 77 µg/ml of probenecid for 1 hour, as recommended by the manufacturer. […] Dose–response curves were generated and EC50 values calculated by nonlinear regression analysis using PRISM software version 5.0 (GraphPad Software Inc, San Diego, CA) after subtracting the responses of mock-transfected cells stimulated with same concentrations of agonists.
For estimation of calcium mobilized using the non-ratiometric calcium indicator Fluo-4NW, the ΔF/F ratio which approximately indicates calcium is calculated using the equation (19), ΔF/F = (F-Fbase)/(Fbase -B). Where F is the measured fluorescence intensity of Fluo-4NW, Fbase is the fluorescence intensity of Fluo-4NW in the cell before stimulation, and B is the background signal determined from areas adjacent to the cell. […]

Ki (TP A160S mutant) [µM] | Ki [1] [µM] | Ki (TP A160V mutant) [µM] | Effect on basal (agonist-independent) calcium mobilization [2] | SMILES
1.52 | 0.72 | 1.51 |  | CCCCC[C@H](O)/C=C/[C@@H]1[C@@H](C/C=C\CCCC(=O)O)[C@H]2CO[C@@H]1C2 [U46619]
 |  |  | significant decrease in basal activity | O=C(O)CCC/C=C\C[C@@H]1[C@H](CNNC(=O)Nc2ccccc2)[C@H]2CC[C@@H]1O2 [SQ 29,548]

From article PMC3260207, “Site-Directed Mutations and the Polymorphic Variant Ala160Thr in the Human Thromboxane Receptor Uncover a Structural Role for Transmembrane Helix 4” (PLoS ONE, 2012)
